Assay results from US20050106729A1, “Gene transfer methods and compositions” (priority 2002, published 2005).

System: MMP-7 deficient corneal epithelial cells co-infected with CFB-EGSH-MMP-7 and FB-ERV retroviruses (ecdysone receptor)
Experiment: Ponasterone A induction of MMP-7 expression in co-infected corneal epithelial cells (immunohistochemistry)
Format: cell-based, mouse
Conditions: 10 μM ponasterone A; two days after induction; induced vs non-induced infected cells
Source text: A cDNA encoding mouse pro matrix metalloproteinase-7 (MMP-7) was obtained from the I.M.A.G.E. clone consortium. Using a PCR-based cloning strategy, the cDNA was inserted into the multiple cloning site of pCFP-EGSH (a plasmid vector including retroviral packaging signals and a multiple cloning site downstream of an ecdysone hormone receptor responsive promoter) to make plasmid pCFB-EGSH-MMP-7. A second plasmid used in these experiments was pFB-ERV, a plasmid vector with retroviral packaging signals, and expressing the constituents of functional ecdysone hormone receptors capable of binding ponasterone A and activating the ecdysone responsive promoter in pCFP-EGSH.
Replication deficient retroviral supematants from pCGB-EGSH-MMP-7 and […] were produced separately. The plasmid for pCFB-EGSH-MMP-7 or pFB-EGSH was co-transfected using a liposomal method into HEK293 cells along with the plasmids pEnv (expressing a retroviral ecotropic envelope protein) and pGag-Pol (expressing the gag and pol genes required for assembly of infectious retroviral particles). […]
MMP-7 deficient corneal epithelial cells co-infected with CFB-EGSH-MMP-7 and FB-ERV replication deficient retroviruses were induced with 10 μM ponasterone A. an ecdysone analog and a ligand for the ecdysone receptor. […] Immunolocalization was determined using epifluorescence microscopy.

SMILES: CC(C)CC[C@@H](O)[C@](C)(O)[C@H]1CC[C@@]2(O)C3=CC(=O)[C@@H]4C[C@@H](O)[C@@H](O)C[C@]4(C)[C@H]3CC[C@]12C [ponasterone A]
- Expression of MMP-7 (immunolocalization, epifluorescence microscopy): Expression of MMP-7 was seen only in infected epithelial cells induced with ponasterone A
